Test [1] concerns gastric secretion stimulated by the gastrin. As to the kind of experiment: Antagonist effect: inhibition of gastrin (minigastrin)-stimulated acid secretion, stomach of a reperfused, anaesthetized rat. The format is in vivo. The text has this: (§1) The compounds according to the invention were studied as far as their therapeutical properties are concerned. More particularly, these compounds were studied in vivo as far as their gastric secretory effect in the rat is concerned. The model chosen for measuring the secretory effect is that of the stomach of a reperfused, anaesthetized rat. The protocol followed is a modification of the one described previously by Ghosh and Schild. A male rat of Wistar strain, weighing 300 g, having fasted for 18 hours, is anaesthetized with urethane (10% solution, 1.5 ml/100 g i.p.). A tracheotomy is then made, as well as a catheterism of the vein of the penis which will allow i.v. administration of the peptides. A cannula is then placed in the oesophagus up to the cardiac orifice and a second cannula in the duodenum (by a duodenotomy made about 3 cm from the pylorus) up to the antral gastric zone. A propionic-succinic solute (pH 5.5) which gives a linear variation of the pH as a function of the concentration of H^+ ions is used for perfusing the stomach in open or closed circuit with a flow rate of 3 ml/min. The body temperature, as well as that of the solute, is monitored and maintained at 30° C. The acid secretion of the stomach will bring about a variation in pH detected by the glass half-cell and recorded as a function of time. After stabilization of the basal secretion, gastrin is injected by the intravenous route, either in perfusion or in a single injection. The response is recorded as a function of time and the quantity of acid secretion is measured on the recording by difference with the basal secretion. The same experiment is carried out either by injecting the peptide to be studied i.v. on a plateau of acid secretion stimulated by the gastrin, or by associating the peptide with the stimulant in variable ratios of concentration. Finally, the peptide is administered alone at different doses in order to examine its agonist effect.

In the next test the test system is gastric secretion. As to the kind of experiment: Agonist effect: gastric secretory effect of the peptide administered alone i.v., stomach of a reperfused, anaesthetized rat. Particulars: anaesthetized male Wistar rat. It counts as in vivo.
Excerpt: as §1

The mark [2] stands for this setting: agonist minigastrin 0.6 μg/kg (single), dose of antagonist 1.5 mg/kg i.v.

Residues, ends and D or L forms follow the SMILES beside them. *: point of attachment. Cbz = O=C(OCc1ccccc1)*; Boc = CC(C)(C)OC(=O)*

On to `CSCC[C@H](NC(=O)[C@H](Cc1c[nH]c2ccccc12)NC(=O)CNC(=O)[C@H](Cc1ccc(O)cc1)NC(=O)[C@H](C)NC(=O)[C@H](CCC(=O)O)NC(=O)OCc1ccccc1)C(=O)N[C@@H](CC(=O)O)C(N)=O` [Example 5, Z--Glu--Ala--Tyr--Gly--Trp--Met--Asp--NH2] (Cbz-EAYGWMD-NH2), for which, in test [1] (setting [2]), the “Inhibiting effect (%)” value turned out to be 50%. In addition, the “Secretary effect (40 mins.)” value with gastric secretion (dose 10000 μg/kg) amounted to 0 μmol H^+.
With “Z--Tyr(HSO3)--Met--Gly--Trp--Met--Asp--NH2 [Example 3]”, the “Inhibiting effect (%)” value in test [1] (setting [2]) is recorded as 47%; in test [1] (agonist minigastrin 1.5 μg/kg/hr (perfusion), dose of antagonist 1.5 mg/kg i.v.) it was 47.4%. Moreover, the “Secretary effect (40 mins.)” value in the test with gastric secretion (dose 1000 μg/kg) was 0.15 μmol H^+.
Consider `CSCC[C@H](NC(=O)[C@H](Cc1c[nH]c2ccccc12)NC(=O)CNC(=O)[C@H](Cc1ccc(O)cc1)NC(=O)OC(C)(C)C)C(=O)N[C@@H](CC(=O)O)C(N)=O` [Example 4, Boc--Tyr--Gly--Trp--Met--Asp--NH2] (Boc-YGWMD-NH2), for which the “Inhibiting effect (%)” value in test [1] (agonist minigastrin 0.6 μg/kg (single), dose of antagonist 1.2 mg/kg i.v.) is given as 50.4%. For the same compound, in the test on gastric secretion (dose 5000 μg/kg), the “Secretary effect (40 mins.)” value came out at 0.1 μmol H^+.

Source of the values: US4636490A, “Novel peptidic derivatives inhibiting gastric secretion, process for preparing them and drugs containing them” (Sanofi, priority 1983, dated 1987).
